Results: patent US10611729B2, “Farnesoid X receptor antagonists” (City of Hope, priority 2014, dated 2020)
Read-outs that look alike come from different tables or passages of the source.

How the values were obtained:
[1] = test system: GeneBLAzer FXR-UAS-bla HEK 293T cells; conditions: human, 16 h
Procedure: To examine if certain chemical antagonistic effect was caused by cytotoxicity, the same GeneBLAzer FXR cells were used to perform cytotoxicity assay. This assay was set up like the FXR agonistic assay, with the exception of signal reading. Instead of detecting the reporter activities, CellTiter-Glo® assay was used to detect cell viability. DMSO with cells or without cells group were served as negative (0% Inhibition) or positive (100% Inhibition), respectively.
Cytotoxicity assays were performed side-by-side with the FXR agonistic assay using GeneBLAzer FXR-UAS-bla HEK 293T cells with CellTiter-Glo® Luminescent Cell Viability Assay reagent (Promega). Briefly, cells were maintained in DMEM supplemented with 10% dialyzed FBS, 0.1 mM non-essential amino acids, 25 mM HEPES, 100 μg/ml of hygromycin B, 100 μg/ml of zeocin, 100 units/ml penicillin and 100 μg/ml streptomycin in regular tissue culture flasks. […] As a positive control, the wells in column 24 of each plate were filled with 30 μL assay medium along with 0.5% DMSO. The final DMSO concentration was 0.5% in each assay well. After a 16 h incubation in a cell culture incubator at 37° C., the cell plates were cooled at room temperature for 20 min and then CellTiter-Glo® reagent 20 μl/well was added followed by an incubation for 20 min in the dark to allow the development of optimal luminescence signal. The luminescence signal from each well in plates was collected with an Envision plate reader equipped with Ultra-sensitive Luminescence detector. The DMSO group and no cell group served as negative (0% activation) and positive (100% activation) controls, respectively. The % inhibition was calculated using equation 4 below.

FXR [2] = target: T1, FXR (Homo sapiens, UniProt Q96RI1); assay: FXR TR-FRET binding assay (DY246 fluorescent probe); conditions: for inhibition at 0.493 µM: at 493 nM; for IC50: mean ± SE; for inhibition at 0.164 µM: at 164 nM
T1 sequence (Q96RI1 262-486 limits assumed): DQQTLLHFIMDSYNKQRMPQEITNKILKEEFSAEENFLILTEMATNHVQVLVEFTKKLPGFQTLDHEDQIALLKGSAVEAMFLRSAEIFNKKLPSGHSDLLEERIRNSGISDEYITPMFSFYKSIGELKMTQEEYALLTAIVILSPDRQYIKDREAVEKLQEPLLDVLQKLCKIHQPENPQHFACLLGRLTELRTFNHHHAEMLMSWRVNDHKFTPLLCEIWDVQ
Procedure: The FXR TR-FRET binding assay was performed as previously described^23 with modifications. […] The plate was spun down after a brief shake and incubated at room temperature for 20 min. The TR-FRET emission signals at 520 nm and 490 nm for each well was then collected using a PHERAstar plate reader (BMG LABTECH, Cary, N.C.) with an excitation wavelength of 337 nm, 100-μs delay time, and 200-μs integration time. The 520 nm/490 nm ratio from each well was then calculated. […] The % inhibition of tested chemicals at given concentration was calculated based on negative and positive controls using equation 1.

FXR [3] = target: T1, FXR; assay: GeneBLAzer FXR cell-based antagonistic assay (in presence of 400 nM GW4064); design: the Gal4 DBD was fused to the LBD of FXR in this assay; host or cells: GeneBLAzer FXR-UAS-bla HEK 293T cells; conditions: for IC50: with 400 nM GW4064, read-out: GB FXR Cell Anta. IC50
Procedure: A GeneBLAzer FXR cell-based assay was used to investigate the cellular activities of the 1,3,4-trisubstituted-pyrazol-4-carboxamide analogs. The assay detects the levels of a […] reporter controlled by a promoter containing the binding site of the DNA binding domain (DBD) of the GAL4 transcription factor; the Gal4 DBD was fused to the LBD of FXR in this assay.^35
FXR transactivation assays were performed using GeneBLAzer FXR-UAS-bla HEK 293T cells (Invitrogen). Cells were maintained according to the manufacturer's instructions. […] Plates were then incubated in dark for 90 min at room temperature before measuring the fluorescent emissions at 460 nm and 535 nm (using excitation at 400 nm) with an Envision plate reader with bottom read capacity. After background signal subtraction for individual emission channels, emission signals at 460 and 535 nm from each well were used to determine the ratio of 460 nm/535 nm. […] The % activation was calculated using equation 2.
The % inhibition was calculated using equation 3.

[4] = read-out: FXR TR-FRET Binding % Inh.
[5] = read-out: GB FXR Cell Anta. % Inh.

Row | IC50 (FXR [2]) [nM] | inhibition at 40 µM (FXR [3]; [5]) [%] | IC50 (FXR [3]) [nM] | inhibition at 0.164 µM (FXR [2]; [4]) [%] | FXR antagonistic activity, SAR statement in words (FXR [3]) | Structure (SMILES) | further results
1 | 24.3 ± 0.6 | 72 ± 2.2 | 2490 ± 6 |  |  | Cc1ccc(-c2nn(-c3ccc(F)cc3)cc2C(=O)Nc2ccc(C)c(S(=O)(=O)N3CCOCC3)c2)cc1 [Compound 4a, 1-(4-fluorophenyl)-N-(4-methyl-3-(morpholinosulfonyl)phenyl)-3-p-tolyl-1H-pyrarazole-4-carboxamide] | GB FXR Cell Cyto % Inh. ([1]; 40 μM): 18.5 ± 1.0%; inhibition at 0.493 µM (FXR [2]; [4]): 95 ± 1.2%
2 | 10.4 ± 0.9 | 60.6 ± 0.9 | 5910 ± 150 | 99.3 ± 1.1 |  | Cc1ccc(-c2nn(-c3cccc(Cl)c3)cc2C(=O)Nc2ccc(C)c(S(=O)(=O)N3CCOCC3)c2)cc1 [Compound 4b, 1-(3-Chlorophenyl)-N-(4-methyl-3-(morpholinosulfonyl)phenyl)-3-(p-tolyl)-1H-pyrazole-4-carboxamide] | 
3 | 14.1 ± 0.3 | 89.9 ± 1.9 | 1240 ± 120 | 120 ± 7.8 |  | Cc1ccc(-c2nn(-c3ccc(Cl)cc3Cl)cc2C(=O)Nc2ccc(C)c(S(=O)(=O)N3CCOCC3)c2)cc1 [Compound 4c, 1-(2,4-Dichlorophenyl)-N-(4-methyl-3-(morpholinosulfonyl)phenyl)-3-(p-tolyl)-1H-pyrazole-4-carboxamide] | 
4 | 23.9 ± 2.1 | 54.8 ± 1.3 | 22300 ± 1140 | 77.5 ± 4.3 |  | Cc1ccc(-c2nn(-c3cccc(C(F)(F)F)c3)cc2C(=O)Nc2ccc(C)c(S(=O)(=O)N3CCOCC3)c2)cc1 [Compound 4d, N-(4-Methyl-3-(morpholinosulfonyl)phenyl)-3-(p-tolyl)-1-(3-(trifluoromethyl)phenyl)-1H-pyrazole-4-carboxamide] | GB FXR Cell Cyto % Inh. ([1]; 40 μM): 7.3 ± 0.2%
5 | 17.7 ± 0.4 | 79.1 ± 2.4 | 7910 ± 1160 | 102 ± 2.8 |  | Cc1ccc(-c2nn(-c3nc4ccccc4s3)cc2C(=O)Nc2ccc(C)c(S(=O)(=O)N3CCOCC3)c2)cc1 [Compound 4e, 1-(Benzo[d]thiazol-2-yl)-N-(4-methyl-3-(morpholinosulfonyl)phenyl)-3-(p-tolyl)-1H-pyrazole-4-carboxamide] | GB FXR Cell Cyto % Inh. ([1]; 13.3 μM): 11.5 ± 0.2 (13.3 μM) %; fold improvement of activity compared to Z26476908 (FXR [2]; text says FXR antagonistic activity / potency in hFXR, figures fit TR-FRET IC50): 3 fold
6 | 49.1 ± 9.9 | 99.1 ± 4.4 | 1690 ± 180 |  | retention of the antagonistic activity | Cc1ccc(-c2nn(C(C)C)cc2C(=O)Nc2ccc(C)c(S(=O)(=O)N3CCOCC3)c2)cc1 [Compound 4f, 1-Isopropyl-N-(4-methyl-3-(morpholinosulfonyl)phenyl)-3-(p-tolyl)-1H-pyrazole-4-carboxamide] | inhibition at 4.4 µM (FXR [2]; [4]): 131 ± 3.8%
7 | 52.5 ± 4.1 |  | 11510 ± 70 |  | retention of the antagonistic activity | CCCCn1cc(C(=O)Nc2ccc(C)c(S(=O)(=O)N3CCOCC3)c2)c(-c2ccc(C)cc2)n1 [Compound 4g, 1-Butyl-N-(4-methyl-3-(morpholinosulfonyl)phenyl)-3-(p-tolyl)-1H-pyrazole-4-carboxamide] | GB FXR Cell Cyto % Inh. ([1]; 4.4 μM): 10.3 ± 0.3%; inhibition at 1.5 µM (FXR [2]; [4]): 130.1 ± 0.7%; inhibition at 20 µM (FXR [3]; [5]): 97.9 ± 8.1%
8 | 10.2 ± 1.6 | 84.4 ± 4.1 | 844 ± 10.3 | 97.8 ± 1.2 | enhanced antagonistic activity | Cc1ccc(-c2nn(Cc3ccc4ccccc4c3)cc2C(=O)Nc2ccc(C)c(S(=O)(=O)N3CCOCC3)c2)cc1 [Compound 4h, N-(4-Methyl-3-(morpholinosulfonyl)phenyl)-1-(naphthalen-2-ylmethyl)-3-(p-tolyl)-1H-pyrazole-4-carboxamide] | GB FXR Cell Cyto % Inh. ([1]; 4.4 μM): 7.9 ± 0.3 (4.4 μM) %
9 | 76.9 ± 2.7 | 100 ± 3.2 | 849 ± 69 |  |  | Cc1ccc(-c2nn(CC3CC3)cc2C(=O)Nc2ccc(C)c(S(=O)(=O)N3CCOCC3)c2)cc1 [Compound 4i, 1-(Cyclopropylmethyl)-N-(4-methyl-3-(morpholinosulfonyl)phenyl)-3-(p-tolyl)-1H-pyrazole-4-carboxamide] | fold decrease of activity for hFXR compared to Z26476908 (FXR [2]): 2 fold; inhibition at 1.5 µM (FXR [2]; [4]): 105 ± 4.9%
10 | 18.4 ± 1.2 | 93.4 ± 3.9 | 515 ± 25.4 | 99.2 ± 6.4 |  | Cc1ccc(-c2nn(Cc3cccc(C(F)(F)F)c3)cc2C(=O)Nc2ccc(C)c(S(=O)(=O)N3CCOCC3)c2)cc1 [Compound 4k, N-(4-methyl-3-(morpholinosulfonyl)phenyl)-3-(p-tolyl)-1-(3-(trifluoromethyl)benzyl)-1H-pyrazole-4-carboxamide] | 
11 | 130 ± 16 | 97.6 ± 3.7 | 2610 ± 290 |  |  | Cc1ccc(-c2nn(CCCCO)cc2C(=O)Nc2ccc(C)c(S(=O)(=O)N3CCOCC3)c2)cc1 [Compound 4l, 1-(4-Hydroxybutyl)-N-(4-methyl-3-(morpholinosulfonyl)phenyl)-3-(p-tolyl)-1H-pyrazole-4-carboxamide] | GB FXR Cell Cyto % Inh. ([1]; 40 μM): 5.9 ± 0.2%; inhibition at 0.493 µM (FXR [2]; [4]): 89.3 ± 0.1%
12 | 199 ± 21.2 | 99.2 ± 2.7 | 3110 ± 580 |  | decreased the potency and affinity | COc1cccc(Cn2cc(C(=O)Nc3ccc(C)c(S(=O)(=O)N4CCOCC4)c3)c(C(C)C)n2)c1 [Compound 4m, 3-Isopropyl-1-(3-methoxybenzyl)-N-(4-methyl-3-(morpholinosulfonyl)phenyl)-1H-pyrazole-4-carboxamide] | inhibition at 4.4 µM (FXR [2]; [4]): 101 ± 5.6%
13 | 160 ± 22.6 | 97.8 ± 1.5 | 3490 ± 640 |  |  | COc1cccc(-c2nn(C(C)C)cc2C(=O)Nc2ccc(C)c(S(=O)(=O)N3CCOCC3)c2)c1 [Compound 4n, 1-Isopropyl-3-(3-methoxyphenyl)-N-(4-methyl-3-(morpholinosulfonyl)phenyl)-1H-pyrazole-4-carboxamide] | GB FXR Cell Cyto % Inh. ([1]; 4.4 μM): 10.8 ± 0.2%; inhibition at 13.3 µM (FXR [2]; [4]): 150 ± 6.9%
14 | 42.8 ± 0.5 | 89.4 ± 4.2 | 1240 ± 90 |  | slightly decreased antagonistic activity | COc1cccc(Cn2cc(C(=O)Nc3ccc(C)c(S(=O)(=O)N4CCOCC4)c3)c(-c3cccc(OC)c3)n2)c1 [Compound 4o, 1-(3-Methoxybenzyl)-3-(3-methoxyphenyl)-N-(4-methyl-3-(morpholinosulfonyl)phenyl)-1H-pyrazole-4-carboxamide] | inhibition at 0.493 µM (FXR [2]; [4]): 114 ± 3.3%
15 | 30.9 ± 3.6 | 97.6 ± 0.9 | 592.7 ± 3 | 109 ± 3.6 |  | COc1cccc(Cn2cc(C(=O)Nc3ccc(C)c(S(=O)(=O)N4CCOCC4)c3)c(-c3ccc(C(F)(F)F)cc3)n2)c1 [Compound 4q, 1-(3-Methoxybenzyl)-N-(4-methyl-3-(morpholinosulfonyl)phenyl)-3-(4-(trifluoromethyl)phenyl)-1H-pyrazole-4-carboxamide] | 
16 | 3420 ± 190 | 62.5 ± 0.8 | 29600 ± 1750 |  | loss of potency | COCCc1nn(C(C)C)cc1C(=O)Nc1ccc(C)c(S(=O)(=O)N2CCOCC2)c1 [Compound 4r] | inhibition at 40 µM (FXR [2]; at 40 μM, read-out: FXR TR-FRET Binding % Inh.): 98.2 ± 3.8%
17 | 390 ± 9.4 | 95.9 ± 2.4 | 11100 ± 640 |  | loss of potency | COCCc1nn(Cc2cccc(OC)c2)cc1C(=O)Nc1ccc(C)c(S(=O)(=O)N2CCOCC2)c1 [Compound 4s] | inhibition at 13.3 µM (FXR [2]; [4]): 113.5 ± 0.8%
18 |  | 3.1 ± 0.1 |  |  |  | COc1cccc(Cn2cc(CNc3ccc(C)c(S(=O)(=O)N4CCOCC4)c3)c(-c3cccc(OC)c3)n2)c1 [Compound 9-3, N-((1-(3-Methoxybenzyl)-3-(3-methoxyphenyl)-1H-pyrazol-4-yl)methyl)-4-methyl-3-(morpholinosulfonyl)aniline] | inhibition at 1.48 µM (FXR [2]; at 1.48 μM, read-out: FXR TR-FRET Binding % Inh.): 39.8 ± 1.8%
